One assay has as its target hCA II (Homo sapiens, UniProt P00918). In words: Carbonic anhydrase inhibition assay (esterase, p-nitrophenylacetate), hCA II.
The target in the next assay is T1, AChE (Electrophorus electricus, UniProt O42275).
T1 construct: AChE enzyme, obtained from electric eel; from tissue; host or cells: electric eel
In words: biochemical. To be noted: electric eel AChE; mean from three different assays. The protocol:
Acetylcholinesterase enzyme inhibition assay was performed according to our previous studies. […] The substrates of acetylthiocholine iodide (AChI) and 5,5’-dithiobis(2-nitro-benzoic acid) (DTNB) was used for cholinergic enzymatic reaction. For this purpose, 1 mL of Tris / HCl buffer (1.0 M, pH 8.0) and 10 μL of different concentrations of sample solution were dissolved in deionized water. Then, an aliquot of (50 μL) AChE enzyme was transferred and incubated at room temperature for 10 min. After the incubation period, an aliquot of DTNB (0.5 mM, 50 μL) was added. Then, the enzymatic reaction was started by adding 50 μL of AChI (10 mM).

The next assay has as its target hCA I (Homo sapiens, UniProt P00915). In words: biochemical.

Chain of hCA I (P00915 whole entry): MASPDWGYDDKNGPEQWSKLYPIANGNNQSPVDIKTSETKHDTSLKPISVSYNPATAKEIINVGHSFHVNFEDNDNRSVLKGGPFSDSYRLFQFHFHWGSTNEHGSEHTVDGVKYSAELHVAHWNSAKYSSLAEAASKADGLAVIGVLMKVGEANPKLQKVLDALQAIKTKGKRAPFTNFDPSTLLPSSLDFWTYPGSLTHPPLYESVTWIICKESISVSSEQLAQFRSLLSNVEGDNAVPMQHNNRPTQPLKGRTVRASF
T1 sequence (O42275 24-633): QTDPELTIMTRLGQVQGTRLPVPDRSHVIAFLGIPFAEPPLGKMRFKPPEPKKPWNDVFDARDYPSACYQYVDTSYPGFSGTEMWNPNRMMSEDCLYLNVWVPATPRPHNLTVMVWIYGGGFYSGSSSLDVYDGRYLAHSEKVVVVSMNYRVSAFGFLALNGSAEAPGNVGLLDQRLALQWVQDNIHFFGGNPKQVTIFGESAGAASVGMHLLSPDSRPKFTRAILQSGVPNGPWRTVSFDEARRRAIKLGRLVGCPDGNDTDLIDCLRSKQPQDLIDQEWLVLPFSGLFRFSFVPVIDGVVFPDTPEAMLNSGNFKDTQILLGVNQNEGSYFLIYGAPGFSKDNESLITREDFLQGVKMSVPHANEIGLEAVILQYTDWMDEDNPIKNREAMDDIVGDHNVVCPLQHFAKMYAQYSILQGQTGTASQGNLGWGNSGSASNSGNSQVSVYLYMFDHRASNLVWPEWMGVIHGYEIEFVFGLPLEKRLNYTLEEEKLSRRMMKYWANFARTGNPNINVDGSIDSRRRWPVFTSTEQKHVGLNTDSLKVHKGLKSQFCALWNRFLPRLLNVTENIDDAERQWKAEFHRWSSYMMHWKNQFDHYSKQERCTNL
Protocol for hCA II: CA inhibition assay was recorded according to previous studies [4,10,27,49,60–64]. The hCA I and II isoenzymes were purified from human red blood cells by sepharose-4B-L-tyrosine-sulfanilamide affinity chromatography [65], which was used as an affinity matrix for selective retention of both hCA isoenzymes [27,66]. […] After sepharose-4B-L-tyrosine-sulfanilamide affinity chromatography, the enzyme quantity was spectrophotometrically measured at 280 nm [68]. […] Purity controls of both CA isoenzymes were performed according to the Laemmli procedure as described in previous studies. Both isoenzymes were visualized by two different acrylamide concentrations (10% and 3% acrylamide), containing 0.1% sodium dodecyl sulfate (SDS) [69,70].

Broadly, the Ki is the equilibrium dissociation constant of an inhibitor or competing ligand from its target. A high value points to lower affinity. Consider `O=C(/C=C/c1ccc(C(F)(F)F)cc1)c1ccc2[nH]c(=O)oc2c1` [Compound 1, (E )-6-{3-[4-(trifluoromethyl)phenyl]acryloyl}benzoxazol-2(3H )-one], for which the Ki at hCA II stood at 33.6 ± 4.5 nM; on AChE, 159 ± 33.5 nM; at hCA I it was 154 ± 9.3 nM.

As for `O=C(C=Cc1ccc(C(F)(F)F)cc1)c1ccc2c(c1)oc(=O)n2CN1CCCC1` [Compound 1d, 3-(Pyrrolidin-1-ylmethyl)-6-{3-[4-(trifluoromethyl)phenyl]acryloyl}benzoxazol-2(3H)-one], the Ki on hCA II was 19 ± 3 nM; at AChE, 97.6 ± 14.4 nM; on hCA I, 12.3 ± 1.2 nM.

Take `CCN(CC)Cn1c(=O)oc2cc(C(=O)C=Cc3ccc(C(F)(F)F)cc3)ccc21` [Compound 1b, 3-[(Diethylamino)methyl]-6-{3-[4-(trifluoromethyl)phenyl]acryloyl}benzoxazol-2(3H)-one]: the Ki was determined as 37.6 ± 4.3 nM at hCA II, 142 ± 22.1 nM on AChE and 36.8 ± 7.7 nM on hCA I.

Regarding `O=C(C=Cc1ccc(C(F)(F)F)cc1)c1ccc2c(c1)oc(=O)n2CN1CCOCC1` [Compound 1f, 3-(Morpholinomethyl)-6-{3-[4-(trifluoromethyl)phenyl]acryloyl}benzoxazol-2(3H)-one], the figures for the Ki on hCA II, on AChE and on hCA I were 41 ± 5.5 nM, 35.2 ± 2 nM and 20.4 ± 1.7 nM, respectively.

For `CN1CCN(Cn2c(=O)oc3cc(C(=O)C=Cc4ccc(C(F)(F)F)cc4)ccc32)CC1` [Compound 1g, 3-[(4-Methylpiperazin-1-yl)methyl]-6-{3-[4-(trifluoromethyl)phenyl]acryloyl} benzoxazol-2(3H)-one], the inhibition constant Ki at hCA II is 8.6 ± 1.9 nM; on AChE, 48.5 ± 10.2 nM; on hCA I, 53 ± 1.8 nM.

For `CN(C)Cn1c(=O)oc2cc(C(=O)C=Cc3ccc(C(F)(F)F)cc3)ccc21` [Compound 1a, 3-[(Dimethylamino)methyl]-6-{3-[4-(trifluoromethyl)phenyl]acryloyl}benzoxazol-2(3H)-one], the inhibition constant Ki was 23.3 ± 2 nM at hCA II, 130 ± 17.6 nM on AChE and 31.4 ± 5.3 nM on hCA I.

For the molecule `CCCN(CCC)Cn1c(=O)oc2cc(C(=O)C=Cc3ccc(C(F)(F)F)cc3)ccc21` [Compound 1c, 3-[(Dipropylamino)methyl]-6-{3-[4-(trifluoromethyl)phenyl]acryloyl}benzoxazol-2(3H)-one], the results for the inhibition constant Ki at hCA II, on AChE and at hCA I were 24.6 ± 4.7 nM, 116 ± 32 nM and 22.3 ± 2.3 nM, respectively.

Regarding `O=C(C=Cc1ccc(C(F)(F)F)cc1)c1ccc2c(c1)oc(=O)n2CN1CCCCC1` [Compound 1e, 3-(Piperidin-1-ylmethyl)-6-(3-(4-(trifluoromethyl)phenyl)acryloyl)benzoxazol-2(3H)-one], the inhibitory constant (Ki) stood at 18.1 ± 3.5 nM on hCA II, 84 ± 19.2 nM on AChE and 27.6 ± 2.9 nM at hCA I.

The values are drawn from paper PMC8326492, “Novel Mannich bases with strong carbonic anhydrases and acetylcholinesterase inhibition effects: 3-(aminomethyl)-6-{3-[4-(trifluoromethyl)phenyl]acryloyl}-2(3H)-benzoxazolones” (Turkish Journal of Chemistry, 2021).
